Experimental data taken from BindingDB's records for doi:10.1016/j.bmcl.2018.06.027 (Chinese Academy of Science, 2018).

Test: Inhibition of HIV1 3B protease infected in human MT4 cells assessed as protection from virus induced cytopathogenicity measured after 5 days post infection by MTT assay

CC(C)c1nc(CN(C)C(=O)N[C@H](C(=O)N[C@@H](Cc2ccccc2)C[C@H](O)[C@H](Cc2ccccc2)NC(=O)OCc2cncs2)C(C)C)c[se]1
EC50: 550 nM

CC(C)[C@H](NC(=O)N(C)Cc1c[se]c(-c2ccccc2)n1)C(=O)N[C@@H](Cc1ccccc1)C[C@H](O)[C@H](Cc1ccccc1)NC(=O)OCc1cncs1
EC50: 170 nM
